Source: patent publication US20170334899A1, “AMINO-SUBSTITUTED ISOTHIAZOLES” (Bayer Pharma Aktiengesellschaft, priority 2014, published 2017)
Read-outs that look alike come from different tables or passages of the source.

Test system: human cervical tumor cell line HeLa (ATCC CCL-2)
Assay: SAC-Formation - Paclitaxel-Induced Assay
Assay type: cell-based
Details: 24 h, HeLa cells, paclitaxel 0.05 μM, test range 0.005 μM-20 μM, read-out: IC50 [mol/l] SAC-Formation - Paclitaxel-Induced Assay
Method in brief: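 Read-out is high-content imaging of anti-phospho-H3 Ser10 (mitosis) and Hoechst 33342 (DNA, cell number), with decreased mitotic fraction marking checkpoint breakthrough. Compounds (0.005–20 μM) and 0.05 μM paclitaxel co-added to overnight-plated HeLa for 24 h at 37° C; four-parameter Hill fit.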

IC50 (Homo sapiens, HeLa) | IC50 | SMILES
64 nM | – | Cc1nsc(Nc2cnc(C(F)(F)F)cn2)c1C(=O)Nc1ccc(O[C@@H]2CCN(CCC(F)(F)F)C[C@H]2F)nc1 [Example 368, N-(6-{[(3R,4R)-3-fluoro-1-(3,3,3-trifluoropropyl)piperidin-4-yl]oxy}pyridin-3-yl)-3-methyl-5-{[5-(trifluoromethyl)pyrazin-2-yl]amino}-1,2-thiazole-4-carboxamide]
150 nM | – | CCN1CC[C@@H](Oc2ccc(NC(=O)c3c(C)nsc3Nc3cnc(C(F)(F)F)cn3)cn2)[C@H](F)C1 [Example 369, N-(6-{[(3R,4R)-1-ethyl-3-fluoropiperidin-4-yl]oxy}pyridin-3-yl)-3-methyl-5-{[5-(trifluoromethyl)pyrazin-2-yl]amino}-1,2-thiazole-4-carboxamide]
31 nM | – | CCCN1CC[C@H](Oc2ccc(NC(=O)c3c(C)nsc3Nc3cnc(C(F)(F)F)cn3)cn2)[C@@H](F)C1 [Example 370, N-(6-{[(3S,4S)-3-fluoro-1-propylpiperidin-4-yl]oxy}pyridin-3-yl)-3-methyl-5-{[5-(trifluoromethyl)pyrazin-2-yl]amino}-1,2-thiazole-4-carboxamide]
51 nM | – | CCCN1CC[C@@H](Oc2ccc(NC(=O)c3c(C)nsc3Nc3cnc(C(F)(F)F)cn3)cn2)[C@H](F)C1 [Example 371, N-(6-{[(3R,4R)-3-fluoro-1-propylpiperidin-4-yl]oxy}pyridin-3-yl)-3-methyl-5-{[5-(trifluoromethyl)pyrazin-2-yl]amino}-1,2-thiazole-4-carboxamide]
330 nM | – | Cc1nsc(Nc2cnc(C(F)(F)F)cn2)c1C(=O)Nc1ccc(N2CCN(CC(F)F)CC2)cn1 [Example 372, N-{5-[4-(2,2-difluoroethyl)piperazin-1-yl]pyridin-2-yl}-3-methyl-5-{[5-(trifluoromethyl)pyrazin-2-yl]amino}-1,2-thiazole-4-carboxamide]
190 nM | – | Cc1nsc(Nc2cnc(C(F)(F)F)cn2)c1C(=O)Nc1ccc(N2CCN(CC(F)(F)F)CC2)cn1 [Example 373, 3-methyl-N-{5-[4-(2,2,2-trifluoroethyl)piperazin-1-yl]pyridin-2-yl}-5-{[5-(trifluoromethyl)pyrazin-2-yl]amino}-1,2-thiazole-4-carboxamide]
210 nM | – | Cc1nsc(Nc2cnc(C(F)(F)F)cn2)c1C(=O)Nc1ccc(N2CCN(CCC(F)(F)F)CC2)cn1 [Example 374, 3-methyl-5-{[5-(trifluoromethyl)pyrazin-2-yl]amino}-N-{5-[4-(3,3,3-trifluoropropyl)piperazin-1-yl]pyridin-2-yl}-1,2-thiazole-4-carboxamide]
200 nM | – | Cc1nsc(Nc2cnc(C(F)(F)F)cn2)c1C(=O)Nc1ccc(OC[C@@H]2CCCN(CC(F)F)C2)nc1 [Example 375, N-(6-{[(3R)-1-(2,2-difluoroethyl)piperidin-3-yl]methoxy}pyridin-3-yl)-3-methyl-5-{[5-(trifluoromethyl)pyrazin-2-yl]amino}-1,2-thiazole-4-carboxamide]
44 nM | – | Cc1nsc(Nc2cnc(C(F)(F)F)cn2)c1C(=O)Nc1ccc(OC[C@@H]2CCCN(CC(F)(F)F)C2)nc1 [Example 376, 3-methyl-N-(6-{[(3R)-1-(2,2,2-trifluoroethyl)piperidin-3-yl]methoxy}pyridin-3-yl)-5-{[5-(trifluoromethyl)pyrazin-2-yl]amino}-1,2-thiazole-4-carboxamide]
88 nM | – | Cc1nsc(Nc2cnc(C(F)(F)F)cn2)c1C(=O)Nc1ccc(OC[C@@H]2CCCN(CCC(F)(F)F)C2)nc1 [Example 377, 3-methyl-5-{[5-(trifluoromethyl)pyrazin-2-yl]amino}-N-(6-{[(3R)-1-(3,3,3-trifluoropropyl)piperidin-3-yl]methoxy}pyridin-3-yl)-1,2-thiazole-4-carboxamide]
96 nM | – | Cc1nsc(Nc2cnc(C(F)(F)F)cn2)c1C(=O)Nc1ccc(O[C@@H]2CCN(CC(F)F)C2)nc1 [Example 379, N-(6-{[(3R)-1-(2,2-difluoroethyl)pyrrolidin-3-yl]oxy}pyridin-3-yl)-3-methyl-5-{[5-(trifluoromethyl)pyrazin-2-yl]amino}-1,2-thiazole-4-carboxamide]
330 nM | – | Cc1nsc(Nc2cnc(C(F)(F)F)cn2)c1C(=O)Nc1ccc(O[C@@H]2CCN(CC(F)(F)F)C2)nc1 [Example 380, 3-methyl-N-(6-{[(3R)-1-(2,2,2-trifluoroethyl)pyrrolidin-3-yl]oxy}pyridin-3-yl)-5-{[5-(trifluoromethyl)pyrazin-2-yl]amino}-1,2-thiazole-4-carboxamide]
140 nM | – | Cc1nsc(Nc2cnc(C(F)(F)F)cn2)c1C(=O)Nc1ccc(O[C@@H]2CCN(CCC(F)(F)F)C2)nc1 [Example 381, 3-methyl-5-{[5-(trifluoromethyl)pyrazin-2-yl]amino}-N-(6-{[(3R)-1-(3,3,3-trifluoropropyl)pyrrolidin-3-yl]oxy}pyridin-3-yl)-1,2-thiazole-4-carboxamide]
45 nM | – | Cc1nsc(Nc2cnc(C(F)(F)F)cn2)c1C(=O)Nc1ccc(O[C@H]2CCN(CC(F)F)C2)nc1 [Example 382, N-(6-{[(3S)-1-(2,2-difluoroethyl)pyrrolidin-3-yl]oxy}pyridin-3-yl)-3-methyl-5-{[5-(trifluoromethyl)pyrazin-2-yl]amino}-1,2-thiazole-4-carboxamide]
27 nM | – | Cc1nsc(Nc2cnc(C(F)(F)F)cn2)c1C(=O)Nc1ccc(O[C@H]2CCN(CC(F)(F)F)C2)nc1 [Example 383, 3-methyl-N-(6-{[(3S)-1-(2,2,2-trifluoroethyl)pyrrolidin-3-yl]oxy}pyridin-3-yl)-5-{[5-(trifluoromethyl)pyrazin-2-yl]amino}-1,2-thiazole-4-carboxamide]
32 nM | – | Cc1nsc(Nc2cnc(C(F)(F)F)cn2)c1C(=O)Nc1ccc(O[C@H]2CCN(CCC(F)(F)F)C2)nc1 [Example 384, 3-methyl-5-{[5-(trifluoromethyl)pyrazin-2-yl]amino}-N-(6-{[(3S)-1-(3,3,3-trifluoropropyl)pyrrolidin-3-yl]oxy}pyridin-3-yl)-1,2-thiazole-4-carboxamide]
300 nM | – | Cc1nsc(Nc2cnc(C(F)(F)F)cn2)c1C(=O)Nc1ccc(O[C@@H]2CCCN(CC(F)F)C2)nc1 [Example 385, N-(6-{[(3R)-1-(2,2-difluoroethyl)piperidin-3-yl]oxy}pyridin-3-yl)-3-methyl-5-{[5-(trifluoromethyl)pyrazin-2-yl]amino}-1,2-thiazole-4-carboxamide]
57 nM | – | Cc1nsc(Nc2cnc(C(F)(F)F)cn2)c1C(=O)Nc1ccc(O[C@@H]2CCCN(CC(F)(F)F)C2)nc1 [Example 386, 3-methyl-N-(6-{[(3R)-1-(2,2,2-trifluoroethyl)piperidin-3-yl]oxy}pyridin-3-yl)-5-{[5-(trifluoromethyl)pyrazin-2-yl]amino}-1,2-thiazole-4-carboxamide]
130 nM | – | Cc1nsc(Nc2cnc(C(F)(F)F)cn2)c1C(=O)Nc1ccc(O[C@@H]2CCCN(CCC(F)(F)F)C2)nc1 [Example 387, 3-methyl-5-{[5-(trifluoromethyl)pyrazin-2-yl]amino}-N-(6-{[(3R)-1-(3,3,3-trifluoropropyl)piperidin-3-yl]oxy}pyridin-3-yl)-1,2-thiazole-4-carboxamide]
80 nM | – | Cc1nsc(Nc2cnc(C(F)(F)F)cn2)c1C(=O)Nc1ccc(O[C@H]2CCCN(CC(F)F)C2)nc1 [Example 388, N-(6-{[(3S)-1-(2,2-difluoroethyl)piperidin-3-yl]oxy}pyridin-3-yl)-3-methyl-5-{[5-(trifluoromethyl)pyrazin-2-yl]amino}-1,2-thiazole-4-carboxamide]
160 nM | – | Cc1nsc(Nc2cnc(C(F)(F)F)cn2)c1C(=O)Nc1ccc(O[C@H]2CCCN(CC(F)(F)F)C2)nc1 [Example 389, 3-methyl-N-(6-{[(3S)-1-(2,2,2-trifluoroethyl)piperidin-3-yl]oxy}pyridin-3-yl)-5-{[5-(trifluoromethyl)pyrazin-2-yl]amino}-1,2-thiazole-4-carboxamide]
110 nM | – | Cc1nsc(Nc2cnc(C(F)(F)F)cn2)c1C(=O)Nc1ccc(O[C@H]2CCCN(CCC(F)(F)F)C2)nc1 [Example 390, 3-methyl-5-{[5-(trifluoromethyl)pyrazin-2-yl]amino}-N-(6-{[(3S)-1-(3,3,3-trifluoropropyl)piperidin-3-yl]oxy}pyridin-3-yl)-1,2-thiazole-4-carboxamide]
30 nM | 27 nM | Cc1nsc(Nc2cnc(C(F)(F)F)cn2)c1C(=O)Nc1ccc(OCC2CCN(CC(F)(F)F)CC2(F)F)nc1 (stereo not shown) [Example 392, N-(6-{[3,3-difluoro-1-(2,2,2-trifluoroethyl)piperidin-4-yl]methoxy}pyridin-3-yl)-3-methyl-5-{[5-(trifluoromethyl)pyrazin-2-yl]amino}-1,2-thiazole-4-carboxamide]
440 nM | – | CCN1CCC(COc2ccc(NC(=O)c3c(C)nsc3Nc3cnc(C(F)(F)F)cn3)cn2)C(F)(F)C1 (stereo not shown) [Example 393, N-{6-[(1-ethyl-3,3-difluoropiperidin-4-yl)methoxy]pyridin-3-yl}-3-methyl-5-{[5-(trifluoromethyl)pyrazin-2-yl]amino}-1,2-thiazole-4-carboxamide]
35 nM | 27 nM | Cc1nsc(Nc2cnc(C(F)(F)F)cn2)c1C(=O)Nc1ccc(F)c(OC[C@@H]2CCCN(CCC(F)(F)F)C2)c1 [Example 395, N-(4-fluoro-3-{[(3R)-1-(3,3,3-trifluoropropyl)piperidin-3-yl]methoxy}phenyl)-3-methyl-5-{[5-(trifluoromethyl)pyrazin-2-yl]amino}-1,2-thiazole-4-carboxamide]
18 nM | – | CCCCN1CCC(COc2ccc(NC(=O)c3c(C)nsc3Nc3cnc(C(F)(F)F)cn3)cn2)C(F)(F)C1 (stereo not shown) [Example 396, N-{6-[(1-butyl-3,3-difluoropiperidin-4-yl)methoxy]pyridin-3-yl}-3-methyl-5-{[5-(trifluoromethyl)pyrazin-2-yl]amino}-1,2-thiazole-4-carboxamide]
